The structures appear in SMILES notation. Where two headings read alike, the source gives them in different places.

From patent US20250127774A1, “COMPOUNDS FOR LABELLING NUCLEIC ACID AND USES THEREOF” (THE ROYAL INSTITUTION FOR THE ADVANCEMENT OF …, priority 2022, published 2025) come the findings set out here.

Experiment [1] deals with Jurkat cells. As to the kind of experiment: Resazurin Chou-Talalay optimized toxicity assay. The experiment is classed as cell-based. Particulars: Homo sapiens, Fa 0.50 (50% cells killed), read-out: Concentration of compound alone required at Fa. On the procedure: (§1) Lastly to determine how synergistic the combination of VdU with PINK is in the three leukemia cell lines, another resazurin reduction assay was conducted where VdU and PINK were maintained at a constant 5:1 ratio. The data generated from this resazurin assay were analyzed using the synergy model developed by Chou and Talalay 30, which is based on the median effect dose (IC50) and the slope of the drug response curve, as shown in equation II: […]
(§2) The model allows to quantitatively measure the synergy of drug combinations, by generating a combination index (CI).^30 A CI below 1 indicates a synergistic interaction which means that the effect of the drug combination is greater than the effect of both drugs alone combined.^30A CI equal to 1 indicates an additive interaction which means that the effect of the drug combination is equal to the effect of both drugs alone combined.^30 A CI above 1 indicates an antagonistic interaction which means that the effect of the drug combination is less than the effect of both alone combined. […] Where a DRI above 1 is a favorable dose reduction and a DRI below 1 is an unfavorable dose reduction.^30
(§3) Resazurin Chou-Talalay optimized toxicity assay. MV4-11, MOLM-13 and Jurkat cells were seeded in 96-well plates at a density of 20 000 cells/well, 25 000 cells/well and 30 000 cells/well, respectively, in triplicates. The cells were first treated with VdU diluted in fresh media in 1:4 serial dilutions (˜0.01% DMSO) at concentrations of 500-0 μM alone and in combination, and incubated overnight. 24h post nucleoside addition, the cells were treated with PINK diluted in fresh media in 1:4 serial dilutions (˜1% DMSO) at concentrations of 100-0 μM alone or in combination, and incubated for 72 h. […] The cells were treated with resazurin, incubated and measured, as described above. The data was processed and analysed in the CompuSyn program used for running Chou-Talalay synergy analyses.^33
On the technique in general: Resazurin is reduced to fluorescent resorufin, in cell work by metabolically active cells.

The subject of a further experiment is MOLM-13 cells. The experiment is described as follows: Resazurin Chou-Talalay optimized toxicity assay. It counts as cell-based. The note with it: Homo sapiens; MOLM-13, Fa 0.50 (50% cells killed); read-out: Concentration of compound alone required at Fa. On the procedure: as §1, §2, §3
The next experiment relates to MV4-11 and Jurkat. The experiment is described as follows: Resazurin single toxicity assay, summary over both cell lines. The experiment is classed as cell-based. Particulars: Homo sapiens, after 24 h and 72h, read-out: IC50 summarised over both cell lines. The procedure: (§4) Resazurin assays were carried out to test the effectiveness of VdU, VdA and PINK alone in MV4-11 and Jurkat. The resazurin reduction assay is a colorimetric assay which allows to determine a cell's viability based on its metabolic activities.^26 When the cells are alive, the resazurin gets reduced by NADH into its resorufin form by cellular respiration, which is pink and highly fluorescent.^26 When the cells are dead or their metabolisms are impaired, the resazurin remains in its oxidized form, which is blue and has low fluorescence.^26 The cells can then be imaged using a spectrometer to determine how viable they are after each treatment.
Overall, VdU presented itself as a good candidate for the combination therapy with PINK due to its low toxicity in the two leukemia cell lines.
(§5) Resazurin Single toxicity assay. MV4-11 and Jurkat cells were seeded in 96-well plates at a density of 20 000 cells/well, in triplicates. The cells were treated with each nucleoside (VdU/VdA) alone diluted in fresh media in 1:4 serial dilutions (˜0.01% DMSO) at concentrations of 1000-0 μM. The cells were treated with PINK alone diluted in fresh media in 1:2 serial dilutions (˜1% DMSO) at concentration of 100-0 μM. The cells were then incubated for 24 h and 72h. 10 μL of 870 μM resazurin was added per well, and incubated for 2-5 hours. After incubation, the fluorescence intensity at 590 nm (excitation=560 nm) was measured using a SpectraMax M5 plate reader.

The subject of experiment [2] is MV4-11 cells. The experiment is described as follows: Resazurin Chou-Talalay optimized toxicity assay. It counts as cell-based, human. The note with it: MV4-11, Fa 0.25-0.35 (25% to 35% of cells killed). On the procedure:
as §1, §2
Resazurin Chou-Talalay optimized toxicity assay. […] The cells were treated with resazurin, incubated and measured, as described above. The data was processed and analysed in the CompuSyn program used for running Chou-Talalay synergy analyses.^33

Experiment [3] concerns Jurkat cells. The experiment is described as follows: Resazurin single toxicity assay. The experiment is classed as cell-based. Particulars: Homo sapiens, compound alone. The procedure: as §4, §5
For experiment [4], the system named is MV4-11 cells. The experiment is described as follows: Resazurin single toxicity assay. Particulars: Homo sapiens, compound alone. The experiment is classed as cell-based. The procedure: as §4, §5
For another experiment, the system named is H1299 cells. As to the kind of experiment: FACS cell cycle analysis. The experiment is classed as cell-based, human. The note with it: H1299, 48 h and 72 h after the initial treatment. On the procedure: 5-VdU and PINK combinatory impact on the cell cycle. FACS analysis of H1299 cells treated with 5-VdU/PINK whos that the cell cycle progression is severely impacted upon combinatory treatment. […] (see FIG. 26). Percentage of H1299 cells undergoing apoptosis was indicated by staining with Apotracker™ Green, induced after treatment with 1 μM 5-VdU and 10 μM PINK for different time points. H1299 cells were seeded at a density of 20% and treated with 5-VdU and PINK in the indicated concentrations. One day after the last treatment, the medium was exchanged. The cells were then stained with the Apotracker™ Green dye and Hoechst. Images were taken 72h after the first treatment. (C) H1299 cells were treated with 1 μM 5-VdU for 24 h and subsequently with 5 μM PINK for another 24 h.

Where [5] appears, read: 24 h incubation, read-out: IC50 value (24 h).
The mark [6] stands for this setting: 72 h incubation, read-out: IC50 value (72 h).
[7] abbreviates: MV4-11, 24 h incubation, read-out: IC50 value (24 h).
Where [8] appears, read: MV4-11, 72 h incubation, read-out: IC50 value (72 h).

As to `Cc1nnc(-c2ccc3cc4ccc(N(C)C)cc4nc3c2)nn1` [PINK], the IC50 in the experiment on Jurkat cells [1] was 1.1 µM; with MOLM-13 cells, 1.2 µM; in the experiment with MV4-11 and Jurkat, ~5 µM; in the experiment on Jurkat cells [3] (setting [5]), 7 µM; in the experiment on Jurkat cells [3] (setting [6]), 4.4 µM; with MV4-11 cells [4] (setting [7]), 5.7 µM. In the experiment with MV4-11 cells [4] (setting [8]), the IC50 stood at 6.2 µM. Further, the “Concentration of compound alone required at Fa” value with MV4-11 cells [2] came out at 3.2 µM. Besides, the “cell cycle profile (time course)” value in the experiment with H1299 cells is “mostly unperturbed cell cycle profiles”.

As for `C=Cc1cn([C@H]2C[C@H](O)[C@@H](CO)O2)c(=O)[nH]c1=O` [VdU, 5-vinyl-2′-deoxyuridine], the IC50 with Jurkat cells [1] is 3.7 µM; in the experiment on MOLM-13 cells, 4.2 µM; with MV4-11 and Jurkat, > 1000 µM; with Jurkat cells [3] (setting [5]), > 1000 µM; in the experiment on Jurkat cells [3] (setting [6]) it was 52 µM; in the experiment on MV4-11 cells [4] (setting [7]) it was > 1000 µM. In the experiment on MV4-11 cells [4] (setting [8]), the IC50 is > 1000 µM. In addition, in the experiment with MV4-11 cells [2], the “Concentration of compound alone required at Fa” value stood at 59 µM. Further, the “cell cycle profile (time course)” value in the experiment on H1299 cells was “mostly unperturbed cell cycle profiles”.
